Assays:
[1] = Cmax in C57BL/6 mouse plasma at 5 mg/kg, po; type: ADME, organism-based; design: dose 5 mg/kg, route oral
[2] = target: T1, Toll-like receptor 7 (Homo sapiens) (UniProt Q9NYK1); experiment: Agonist activity at TLR7 in human PBMC assessed as suppression of HCV replicon replication in human HuH7 luc/neo cells harboring RNA encoding bicistronic expression construct comprising wild type HCV type 1b NS3-NS5B regions exposed to conditioned media from compound treated PBMCs after 24 hrs by luciferase reporter gene assay; type: cell-based
T1 sequence (whole entry): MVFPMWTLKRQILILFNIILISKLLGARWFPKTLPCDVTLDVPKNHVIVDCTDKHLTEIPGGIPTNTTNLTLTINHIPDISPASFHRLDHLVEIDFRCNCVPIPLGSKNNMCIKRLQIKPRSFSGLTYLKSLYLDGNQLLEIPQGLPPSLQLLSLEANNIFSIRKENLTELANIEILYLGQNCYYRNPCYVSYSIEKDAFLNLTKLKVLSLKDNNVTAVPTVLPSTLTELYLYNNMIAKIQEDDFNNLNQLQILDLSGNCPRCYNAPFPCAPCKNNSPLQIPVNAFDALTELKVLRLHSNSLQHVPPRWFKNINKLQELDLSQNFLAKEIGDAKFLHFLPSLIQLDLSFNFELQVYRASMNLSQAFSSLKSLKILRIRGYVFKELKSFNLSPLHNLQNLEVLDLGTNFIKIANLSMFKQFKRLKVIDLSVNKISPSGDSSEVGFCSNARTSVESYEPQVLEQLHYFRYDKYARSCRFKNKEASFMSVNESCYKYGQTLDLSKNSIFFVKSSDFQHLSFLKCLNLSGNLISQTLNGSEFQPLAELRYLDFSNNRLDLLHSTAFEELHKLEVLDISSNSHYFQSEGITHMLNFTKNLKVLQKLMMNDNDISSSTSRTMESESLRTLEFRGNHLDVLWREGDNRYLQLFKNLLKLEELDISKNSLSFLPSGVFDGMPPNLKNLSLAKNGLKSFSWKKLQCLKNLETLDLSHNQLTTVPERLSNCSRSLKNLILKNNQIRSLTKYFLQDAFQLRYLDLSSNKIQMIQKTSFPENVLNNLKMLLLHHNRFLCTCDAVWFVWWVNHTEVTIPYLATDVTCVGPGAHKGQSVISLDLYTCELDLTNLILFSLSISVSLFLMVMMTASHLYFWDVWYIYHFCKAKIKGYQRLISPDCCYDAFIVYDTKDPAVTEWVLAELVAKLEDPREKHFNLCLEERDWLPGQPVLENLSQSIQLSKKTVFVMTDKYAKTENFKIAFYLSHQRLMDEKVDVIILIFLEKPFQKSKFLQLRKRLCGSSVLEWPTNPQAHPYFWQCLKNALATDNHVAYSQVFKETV

[3] = AUC (0 to last) in C57BL/6 mouse plasma at 5 mg/kg, po; type: ADME, organism-based; design: dose 5 mg/kg, route oral, time 0 - last
Mus musculus [4] = experiment: Induction of innate immune response in C57BL/6 mouse assessed as IFNalpha Cmax in liver at 5 mg/kg, po; type: functional, organism-based; design: dose 5 mg/kg
Mus musculus [5] = experiment: Induction of innate immune response in C57BL/6 mouse assessed as IP-10 Cmax in liver at 5 mg/kg, po; type: functional, organism-based; design: dose 5 mg/kg
[6] = target: Voltage-gated inwardly rectifying potassium channel KCNH2 (Homo sapiens, UniProt Q12809); experiment: Displacement of 3H-dofetilide from human ERG
Cytochrome P450 3A4 = Cytochrome P450 3A4 (Homo sapiens, UniProt P08684); experiment: Inhibition of CYP3A4 (unknown origin); type: ADME
Homo sapiens = species on record: Homo sapiens; experiment: Binding affinity to serotonin receptor (unknown origin)
[7] = Tmax in C57BL/6 mouse plasma at 5 mg/kg, po; type: ADME, organism-based
[8] = target: T1, Toll-like receptor 7 (Homo sapiens); experiment: Agonist activity at human TLR7 expressed in HEK293 cells after 6 hrs by NFkappaB-luciferase reporter gene assay; type: cell-based
[9] = target: Dopamine receptor (Homo sapiens) (UniProt P14416+P35462+P21918+P21917+P21728); experiment: Binding affinity to dopamine receptor (unknown origin); type: protein assay
Mus musculus [10] = experiment: Induction of innate immune response in C57BL/6 mouse assessed as IP-10 Tmax at 5 mg/kg, po; type: functional, organism-based

Chain of Cytochrome P450 3A4 (P08684 whole entry): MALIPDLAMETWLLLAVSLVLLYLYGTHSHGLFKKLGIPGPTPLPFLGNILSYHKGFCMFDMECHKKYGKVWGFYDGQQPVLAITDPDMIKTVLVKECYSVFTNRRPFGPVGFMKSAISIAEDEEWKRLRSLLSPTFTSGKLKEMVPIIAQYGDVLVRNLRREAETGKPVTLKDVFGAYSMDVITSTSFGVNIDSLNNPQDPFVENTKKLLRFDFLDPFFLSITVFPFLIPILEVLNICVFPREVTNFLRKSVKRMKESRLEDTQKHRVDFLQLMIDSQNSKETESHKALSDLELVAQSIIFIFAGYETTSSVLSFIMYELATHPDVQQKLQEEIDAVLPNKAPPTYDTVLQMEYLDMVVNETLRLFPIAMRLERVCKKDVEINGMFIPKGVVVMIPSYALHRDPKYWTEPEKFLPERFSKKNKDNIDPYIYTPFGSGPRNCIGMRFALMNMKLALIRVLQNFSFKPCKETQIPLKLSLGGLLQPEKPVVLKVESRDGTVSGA
Chain of Voltage-gated inwardly rectifying potassium channel KCNH2 (Q12809 whole entry): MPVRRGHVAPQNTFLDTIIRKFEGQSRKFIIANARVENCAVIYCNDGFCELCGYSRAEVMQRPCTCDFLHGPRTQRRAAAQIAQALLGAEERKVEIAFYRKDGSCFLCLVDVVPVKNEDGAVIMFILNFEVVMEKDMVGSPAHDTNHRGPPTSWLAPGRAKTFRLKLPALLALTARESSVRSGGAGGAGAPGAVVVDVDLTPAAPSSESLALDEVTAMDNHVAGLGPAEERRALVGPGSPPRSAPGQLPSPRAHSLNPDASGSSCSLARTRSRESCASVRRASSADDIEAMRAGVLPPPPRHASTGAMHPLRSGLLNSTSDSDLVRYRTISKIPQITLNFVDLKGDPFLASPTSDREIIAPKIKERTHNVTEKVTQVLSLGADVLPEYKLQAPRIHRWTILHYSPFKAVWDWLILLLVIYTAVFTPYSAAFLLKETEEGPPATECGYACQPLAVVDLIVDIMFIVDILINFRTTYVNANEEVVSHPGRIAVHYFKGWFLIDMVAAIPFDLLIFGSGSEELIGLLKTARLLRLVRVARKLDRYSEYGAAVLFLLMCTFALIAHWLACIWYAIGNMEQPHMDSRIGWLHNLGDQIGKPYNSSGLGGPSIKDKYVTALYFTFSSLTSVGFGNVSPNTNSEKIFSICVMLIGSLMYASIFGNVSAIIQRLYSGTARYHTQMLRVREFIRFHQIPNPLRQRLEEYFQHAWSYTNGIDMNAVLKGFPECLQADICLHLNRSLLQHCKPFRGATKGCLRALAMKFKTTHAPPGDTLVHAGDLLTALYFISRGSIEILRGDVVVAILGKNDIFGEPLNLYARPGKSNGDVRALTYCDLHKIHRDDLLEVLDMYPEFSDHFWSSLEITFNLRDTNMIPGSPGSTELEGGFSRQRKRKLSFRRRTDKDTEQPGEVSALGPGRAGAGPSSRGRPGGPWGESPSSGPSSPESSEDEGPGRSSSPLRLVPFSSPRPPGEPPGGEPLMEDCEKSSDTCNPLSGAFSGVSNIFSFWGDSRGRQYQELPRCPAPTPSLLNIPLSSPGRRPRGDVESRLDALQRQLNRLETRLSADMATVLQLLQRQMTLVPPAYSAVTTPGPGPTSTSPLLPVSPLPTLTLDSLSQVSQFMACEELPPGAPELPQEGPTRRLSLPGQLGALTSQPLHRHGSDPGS

Structure (SMILES): CCC[C@@H](CCO)Nc1nc(N)nc2c1CN(C(=O)c1csc(C)n1)CC2
- Cmax [1]: 29 ng/mL
- MEC [2]: 0.2 µM
- AUC(0-t) [3]: 70 ng·h/mL
- Cmax (Mus musculus [4]): 0 pg/g
- Cmax (Mus musculus [5]): 75 pg/g
- IC50 [6]: 22 µM
- IC50 (Cytochrome P450 3A4): > 10 µM
- Activity (Homo sapiens): > 10 µM
- Tmax [7]: 30 min
- MEC [8]: 1.5 µM
- Activity [9]: > 10 µM
- Tmax (Mus musculus [10]): 4 h

Reference: ChEMBL document CHEMBL4265889, “Design and synthesis of tetrahydropyridopyrimidine based Toll-Like Receptor (TLR) 7/8 dual agonists” (Bioorg Med Chem Lett, 2018)
